Results published in patent US20080009511A1, “Cancer treatment with compounds inhibiting PKC alpha” (priority 2004, published 2008).

Key:
U251 human glioma cells = experiment: Cell viability assay (trypan blue dye exclusion), viable cells counted at day 6; format: cell-based; conditions: 10 micromoles; for Treated (cell number × 10^5): about 4×10^4 cells seeded, untreated 9.6 ± 0.5; for % inhibiton: growth vs untreated
Procedure: (§1) The following cancer cells were maintained in Dulbecco's modified Eagle medium (DMEM) supplemented with 10 percent bovine calf serum. Cells were seeded for 24 hours. Then they were treated with PKC inhibitors or left untreated. The cells were then collected periodically and evaluated using trypan blue dye exclusion to assess viability using the method described by C Y Chen, et al., in J. Biol. Chem. 273:16700-16709. Cultures containing about 4×10^4 cells were treated with 5 micromoles of Gö7874 (except that PC3 prostate cancer cells were treated with 10 micromoles) and the viable cells were counted at day 6. […] Cultures containing about 4×10^4 cells were treated with or without 10 micromoles of Gö6850 and the viable cells were counted at day 6. […] Cultures containing about 4×10^4 cells were treated with or without 10 micromoles of NGIC-I and the viable cells were counted at day 6. […] Cultures containing about 4×10^4 cells were treated with or without 10 micromoles of Ro31-7549 and the viable cells were counted at day 6. […] Cultures containing about 4×10^4 cells were treated with or without 10 micromoles of Ro31-8220 and the viable cells were counted at day 6. […] Cultures containing about 4×10^4 cells were treated with or without 10 micromoles of Ro31-8425 and the viable cells were counted at day 6. […] Cultures containing about 4×10^4 cells were treated with or without 10 micromoles of Ro31-0432 and the viable cells were counted at day 6.

[1] = tested on: Hela human cervical cancer cells; experiment: as above; format: cell-based; conditions: 10 micromoles; for Treated (cell number × 10^5): about 4×10^4 cells seeded, untreated 3.4 ± 0.4; for % inhibiton: growth vs untreated
Procedure: as §1

[2] = tested on: HepG2 human liver cancer cells; experiment: as above; format: cell-based; conditions: 10 micromoles; for Treated (cell number × 10^5): about 4×10^4 cells seeded, untreated 4.2 ± 0.4; for % inhibiton: growth vs untreated
Procedure: as §1

[3] = tested on: PANC-1 human pancreatic carcinoma cells; experiment: as above; format: cell-based; conditions: 10 micromoles; for Treated (cell number × 10^5): about 4×10^4 cells seeded, untreated 2.1 ± 0.3; for % inhibiton: growth vs untreated
Procedure: as §1

[4] = tested on: AGS human gastric cancer cells; experiment: as above; format: cell-based; conditions: 10 micromoles; for Treated (cell number × 10^5): about 4×10^4 cells seeded, untreated 2.4 ± 0.3; for % inhibiton: growth vs untreated
Procedure: as §1

[5] = tested on: PC3 human prostate cancer cells; experiment: as above; format: cell-based; conditions: 10 micromoles; for Treated (cell number × 10^5): about 4×10^4 cells seeded, untreated 7.1 ± 0.3; for % inhibiton: growth vs untreated
Procedure: as §1

[6] = tested on: NBT-II human bladder cancer cells; experiment: as above; format: cell-based; conditions: 10 micromoles; for Treated (cell number × 10^5): about 4×10^4 cells seeded, untreated 2.9 ± 0.4; for % inhibiton: growth vs untreated
Procedure: as §1

[7] = tested on: H460 human lung cancer cells; experiment: as above; format: cell-based; conditions: 10 micromoles; for Treated (cell number × 10^5): about 4×10^4 cells seeded, untreated 2.4 ± 0.2; for % inhibiton: growth vs untreated
Procedure: as §1

[8] = tested on: HT29 human colon cancer cells; experiment: as above; format: cell-based; conditions: 10 micromoles; for Treated (cell number × 10^5): about 4×10^4 cells seeded, untreated 3.8 ± 0.4; for % inhibiton: growth vs untreated
Procedure: as §1

[9] = tested on: Jurkat cells (a human acute T-cell leukemia cell line); experiment: as above; format: cell-based; conditions: 10 micromoles; for Treated (cell number × 10^5): about 4×10^4 cells seeded, untreated 8.8 ± 0.4; for % inhibiton: growth vs untreated
Procedure: as §1

[10] = tested on: A431 human epidermoid carcinoma cells; experiment: as above; format: cell-based; conditions: 10 micromoles; for Treated (cell number × 10^5): about 4×10^4 cells seeded, untreated 5.4 ± 0.4; for % inhibiton: growth vs untreated
Procedure: as §1

[11] = tested on: MDA-MB-468 human breast cancer cells; experiment: as above; format: cell-based; conditions: 10 micromoles; for Treated (cell number × 10^5): about 4×10^4 cells seeded, untreated 6.1 ± 0.4; for % inhibiton: growth vs untreated
Procedure: as §1

human cancer cells = experiment: Cell viability assay, summary over the panel of cancer cells; format: cell-based; conditions: 10 micromoles; day 6; cell lines not named as going to apoptosis
Procedure: The following cancer cells were maintained in Dulbecco's modified Eagle medium (DMEM) supplemented with 10 percent bovine calf serum. Cells were seeded for 24 hours. Then they were treated with PKC inhibitors or left untreated. The cells were then collected periodically and evaluated using trypan blue dye exclusion to assess viability using the method described by C Y Chen, et al., in J. Biol. Chem. 273:16700-16709. Cultures containing about 4×10^4 cells were treated with or without 10 micromoles of Gö6850 and the viable cells were counted at day 6. […] Cultures containing about 4×10^4 cells were treated with or without 10 micromoles of NGIC-I and the viable cells were counted at day 6. […] Cultures containing about 4×10^4 cells were treated with or without 10 micromoles of Ro31-7549 and the viable cells were counted at day 6. […] Cultures containing about 4×10^4 cells were treated with or without 10 micromoles of Ro31-8220 and the viable cells were counted at day 6. […] Cultures containing about 4×10^4 cells were treated with or without 10 micromoles of Ro31-8425 and the viable cells were counted at day 6. […] Cultures containing about 4×10^4 cells were treated with or without 10 micromoles of Ro31-0432 and the viable cells were counted at day 6.

KB oral cancer cells = experiment: Cell viability assay (trypan blue dye exclusion), viable cells counted at day 6; format: cell-based, human; conditions: 10 micromoles; for Treated (cell number × 10^5): about 4×10^4 cells seeded, untreated 3.8 ± 0.4; for % inhibiton: growth vs untreated
Procedure: as §1

| SMILES | Treated (cell number × 10^5) (U251 human glioma cells) | % inhibiton (U251 human glioma cells) | Treated (cell number × 10^5) [1] | % inhibiton [1] | Treated (cell number × 10^5) [2] | % inhibiton [2] | Treated (cell number × 10^5) [3] | % inhibiton [3] | Treated (cell number × 10^5) [4] | % inhibiton [4] | Treated (cell number × 10^5) [5] | % inhibiton [5] | Treated (cell number × 10^5) [6] | % inhibiton [6] | Treated (cell number × 10^5) [7] | % inhibiton [7] | Treated (cell number × 10^5) [8] | % inhibiton [8] | Treated (cell number × 10^5) [9] | % inhibiton [9] | further results |
| --- | --- | --- | --- | --- | --- | --- | --- | --- | --- | --- | --- | --- | --- | --- | --- | --- | --- | --- | --- | --- | --- |
| CN(C)CCCn1cc(C2=C(c3c[nH]c4ccccc34)C(=O)NC2=O)c2ccccc21 [Gö6850, 2-[1-(3-Dimethylaminopropyl)-1H-indol-3-yl]-3-(1H-indol-3-yl)-maleimide] | 7.2 × 10^5 | 23% | 0.3 × 10^5 | * (indicates the inhibitor causes significant cell death, and cell number is less than originally seeded cell number.) | 2.4 × 10^5 | 41% | 1.4 × 10^5 | 30% | 1.5 × 10^5 | 34% | 2.8 × 10^5 | 60% | 1.3 × 10^5 | 57% | 1.6 × 10^5 | 31% | 2.4 × 10^5 | 22% | 4.1 × 10^5 | 53% | cell numbers of treated cells [1]: significantly reduced cell numbers; Treated (cell number × 10^5) [10]: 4.1 × 10^5; % inhibiton [10]: 24%; Treated (cell number × 10^5) [11]: 4.6 ± 0.2 × 10^5; % inhibiton [11]: 25%; inhibition of growth in contrast to untreated cells, range over the other treated cancer cells (human cancer cells): 25-60%; Treated (cell number × 10^5) (KB oral cancer cells): 1.7 × 10^5; % inhibiton (KB oral cancer cells): 55% |
| Cn1cc(C2=C(c3cn(CCCN)c4ccccc34)C(=O)NC2=O)c2ccccc21 [Ro31-7549, 2-[1-3(Aminopropyl)indol-3-yl]-3(1-methyl-1H-indol-3-yl)maleimide, Acetate] | 1.9 × 10^5 | 80% | 6 × 10^5 | * (indicates the inhibitor causes significant cell death, and cell number is less than originally seeded cell number.) | 0 × 10^5 | * (indicates the inhibitor causes significant cell death, and cell number is less than originally seeded cell number.) | 1.2 × 10^5 | 43% | 1.7 × 10^5 | 30% | 2.7 × 10^5 | 62% | 0.6 ± 0.1 × 10^5 | 80% | 0.5 × 10^5 | 81% | 1.7 × 10^5 | 63% | 0.7 × 10^5 | 92% | cells that went to apoptosis upon treatment [1]: significant number; cells that went to apoptosis upon treatment [2]: all; Treated (cell number × 10^5) [10]: 2.8 × 10^5; % inhibiton [10]: 48%; cells that went to apoptosis upon treatment [11]: significant number; Treated (cell number × 10^5) [11]: 0.2 ± 0.05 × 10^5; % inhibiton [11]: * (indicates the inhibitor causes significant cell death, and cell number is less than originally seeded cell number.); inhibition of growth in contrast to untreated cells, range over the other treated cancer cells (human cancer cells): 43-92%; cells that went to apoptosis upon treatment (KB oral cancer cells): all; Treated (cell number × 10^5) (KB oral cancer cells): 0 × 10^5; % inhibiton (KB oral cancer cells): * (indicates the inhibitor causes significant cell death, and cell number is less than originally seeded cell number.) |
